The values that follow come from patent US8426406B2, “Glucocorticoid receptor agonist comprising 2,2,4-trimethyl-6-phenyl-1,2-dihydroquinoline derivatives having substituted oxy group” (Santen Pharmaceutical Co., Ltd., priority 2008, dated 2013).

For this assay, the system named is IL-6 production induced by lipopolysaccharide (LPS) in human corneal epithelial cells. Put plainly: Evaluation test for GR agonist activity: inhibition of LPS-induced IL-6 production in human corneal epithelial cells (HCE-T). The assay is classed as cell-based. Particulars: Corneal epithelial cell, 10 μL of 100 μM test compound solution per well, 4 hours incubation, efficacy relative to DEX. The procedure:
In order to evaluate a GR agonist activity of the present compound, the inhibitory effects on the IL-6 production induced by lipopolysaccharide (LPS) in human corneal epithelial cells. IL-6 levels in the conditioned medium were measured using the HTRF human IL-6 Kit (boehringer-Ingelheim, Cat No. 62IL6PEB), and the procedure was carried out according to the protocol attached to the kit. Hereinafter, the specific method will be described.
LPS solution: After LPS was dissolved in phosphate buffer solution (hereinafter referred to as PBS(−)), the resulting solution was diluted with 10% FBS-DMEM/F12 medium, whereby a 1 μg/mL LPS solution was prepared.
After a test compound was dissolved in dimethylsulfoxide (hereinafter referred to as DMSO), the resulting solution was diluted with 10% FBS-DMEM/F12 medium, whereby a 100 μM test compound solution was prepared. A 100 μM DEX solution was prepared by the same method, and the inhibitory ratio of IL-6 production of DEX was evaluated to use for calculating efficacy (% DEX).
Used cell: SV40-immortalized human corneal epithelial cells (HCE-T) (RIKEN)
1) HCE-T cells were harvested, and seeded at 2.0×10^4 cells/0.1 mL/well in a 96-well plate.
2) After incubation overnight, the medium was removed and a 80 μL of new 10% FBS-DMEM/Ham's F12 medium was added into each well.
3) A 10 μL of test compounds solution was added into each well.
4) A 10 μL of LPS solution was added into each well.
5) As a negative control, a 10 μL of 10% FBS-DMEM/Ham's F12 medium was added into each well instead of a test compound solution and a LPS solution.
6) As a positive control, a 10 μL of 10% FBS-DMEM/Ham's F12 medium containing 1% DMSO was added into each well instead of a test compound solution.
7) After 4 hours incubation, supernatants were collected and IL-6 levels in the supernatants were quantitated using the HTRF human IL-6 Kit.
8) The inhibition ratio of IL-6 production (%) was calculated according to the following equation.
The inhibition ratio of IL-6 production (%) was calculated according to the following equation. The inhibition ratio of IL-6 production(%)=100×[1−(IL-6 level in each group−mean value of IL-6 level in negative control)/(mean value of IL-6 level in positive control−mean value of IL-6 level in negative control)](%)
Furthermore, the inhibition ratio of IL-6 production (efficacy (% DEX)) was also calculated according to the following equation. Efficacy(% DEX)=100×{(mean value of IL-6 inhibition in compound-treated group)/(mean value of IL-6 inhibition in DEX-treated group)}(%) (Result and Discussion)
As a reminder, the Emax is the greatest response seen or fitted, relative to the assay's reference. In turn, `COc1ccccc1NCc1c(-c2ccc(OC(=O)c3cccs3)cc2OC)ccc2c1C(C)=CC(C)(C)N2` [Compound 1-104, 5-(2-Methoxyphenylaminomethyl)-6-[2-methoxy-4-(thiophen-2-ylcarbonyloxy)phenyl]-2,2,4-trimethyl-1,2-dihydroquinoline] had an Emax of 84%.
As for `COc1cc(OC(=O)c2ccco2)ccc1-c1ccc2c(c1CNc1cc(F)ccc1C)C(C)=CC(C)(C)N2` [Compound 1-106, 5-(5-Fluoro-2-methylphenylaminomethyl)-6-[4-(furan-2-ylcarbonyloxy)-2-methoxyphenyl]-2,2,4-trimethyl-1,2-dihydroquinoline], the Emax is 82%.
As for `COc1cc(OC(=O)c2ccncc2F)ccc1-c1ccc2c(c1COc1cc(F)ccc1C)C(C)=CC(C)(C)N2` [Compound 1-69, 5-(5-Fluoro-2-methylphenoxymethyl)-6-[4-(3-fluoropyridin-4-ylcarbonyloxy)-2-methoxyphenyl]-2,2,4-trimethyl-1,2-dihydroquinoline], the Emax amounted to 72%.
`COc1cc(OS(=O)(=O)CCC(F)(F)F)ccc1-c1ccc2c(c1COC(=O)c1ccc(C)s1)C(C)=CC(C)(C)N2` [Compound 4-26, 6-[2-Methoxy-4-(3,3,3-trifluoropropylsulfonyl-oxy)phenyl]-5-(5-methylthiophen-2-yl-carbonyloxymethyl)-2,2,4-trimethyl-1,2-dihydroquinoline]: the Emax stood at 77%.
The figure for `COc1ccccc1NCc1c(-c2ccc(OC(=O)c3ccccc3F)cc2OC)ccc2c1C(C)=CC(C)(C)N2` [Compound 1-101, 6-[4-(2-Fluorobenzoyloxy)-2-methoxyphenyl]-5-(2-methoxyphenylaminomethyl)-2,2,4-trimethyl-1,2-dihydroquinoline] is 81%; for `COc1cc(OC(=O)c2ccccc2F)ccc1-c1ccc2c(c1COc1cc(F)ccc1C)C(C)=CC(C)(C)N2` [Compound 1-45, 6-[4-(2-Fluorobenzoyloxy)-2-methoxyphenyl]-5-(5-fluoro-2-methylphenoxymethyl)-2,2,4-trimethyl-1,2-dihydroquinoline] it is 77%; for `COC(=O)c1cccc(C(=O)Oc2ccc(-c3ccc4c(c3CNc3ccccc3OC)C(C)=CC(C)(C)N4)c(OC)c2)c1` [Compound 1-107, 6-[2-Methoxy-4-(3-methoxycarbonylbenzoyloxy)phenyl]-5-(2-methoxyphenylaminomethyl)-2,2,4-trimethyl-l,2-dihydroquinoline] it is 85%.
The figure for `COc1cc(OC(=O)c2ccsc2)ccc1-c1ccc2c(c1COC(=O)c1ccc(C)s1)C(C)=CC(C)(C)N2` [Compound 1-147, 6-[2-Methoxy-4-(thiophen-3-ylcarbonyloxy)phenyl]-5-(5-methylthiophen-2-ylcarbonyloxymethyl)-2,2,4-trimethyl-1,2-dihydroquinoline] is 80%.
The figure for `COc1cc(OC(=O)c2ccccc2[N+](=O)[O-])ccc1-c1ccc2c(c1COC(=O)c1ccc(C)s1)C(C)=CC(C)(C)N2` [Compound 1-170, 6-[2-Methoxy-4-(2-nitrobenzoyloxy)phenyl]-5-(5-methylthiophen-2-ylcarbonyloxymethyl)-2,2,4-trimethyl-1,2-dihydroquinoline] is 77%.
The molecule `COc1cc(OC(=O)c2ccccc2OC(C)=O)ccc1-c1ccc2c(c1COC(=O)c1ccc(C)s1)C(C)=CC(C)(C)N2` [Compound 1-165, 6-[4-(2-Acetoxybenzoyloxy)-2-methoxyphenyl]-5-(5-methylthiophen-2-ylcarbonyloxymethyl)-2,2,4-trimethyl-1,2-dihydroquinoline] displayed an Emax of 93%.
With `COc1cc(OC(=O)c2ccc(C)nc2)ccc1-c1ccc2c(c1COC(=O)c1ccc(C)s1)C(C)=CC(C)(C)N2` [Compound 1-128, 6-[2-Methoxy-4-(6-methylpyridin-3-ylcarbonyloxy)phenyl]-5-(5-methylthiophen-2-ylcarbonyloxymethyl)-2,2,4-trimethyl-1,2-dihydroquinoline], the Emax was found to be 79%.
The figure for `CCS(=O)(=O)Oc1ccc(-c2ccc3c(c2COC(=O)c2ccc(C)s2)C(C)=CC(C)(C)N3)c(OC)c1` [Compound 4-32, 6-(4-Ethylsulfonyloxy-2-methoxyphenyl)-5-(5-methylthiophen-2-ylcarbonyloxymethyl)-2,2,4-trimethyl-1,2-dihydroquinoline] is 77%.
In turn, `COc1cc(OC(=O)c2cccnc2)ccc1-c1ccc2c(c1COC(=O)c1ccc(Br)s1)C(C)=CC(C)(C)N2` [Compound 1-160, 5-(5-Bromothiophen-2-ylcarbonyloxymethyl)-6-[2-methoxy-4-(pyridin-3-ylcarbonyloxy)phenyl]-2,2,4-trimethyl-1,2-dihydroquinoline] yielded an Emax of 88%.
`CCS(=O)(=O)Oc1ccc(-c2ccc3c(c2COc2cc(F)ccc2C)C(C)=CC(C)(C)N3)c(OC)c1` [Compound 4-4, 6-(4-Ethylsulfonyloxy-2-methoxyphenyl)-5-(5-fluoro-2-methylphenoxymethyl)-2,2,4-trimethyl-1,2-dihydroquinoline] yielded an Emax of 89%.
The molecule `COc1cc(OC(=O)c2occc2C)ccc1-c1ccc2c(c1COc1cc(F)ccc1C)C(C)=CC(C)(C)N2` [Compound 1-57, 5-(5-Fluoro-2-methylphenoxymethyl)-6-[2-methoxy-4-(3-methylfuran-2-ylcarbonyloxy)phenyl]-2,2,4-trimethyl-1,2-dihydroquinoline] showed an Emax of 86%.
For the molecule `COc1cc(OC(=O)c2occc2C)ccc1-c1ccc2c(c1CNc1cc(F)ccc1C)C(C)=CC(C)(C)N2` [Compound 1-126, 5-(5-Fluoro-2-methylphenylaminomethyl)-6-[2-methoxy-4-(3-methylfuran-2-ylcarbonyloxy)phenyl]-2,2,4-trimethyl-1,2-dihydroquinoline], the Emax amounted to 81%.
The figure for `COc1ccc(C(=O)OCc2c(-c3ccc(OC(=O)c4cccnc4)cc3OC)ccc3c2C(C)=CC(C)(C)N3)cc1` [Compound 1-157, 5-(4-Methoxybenzoyloxymethyl)-6-[2-methoxy-4-(pyridin-3-ylcarbonyloxy)phenyl]-2,2,4-trimethyl-1,2-dihydroquinoline] is 76%; for `COc1cc(OC(=O)c2ccco2)ccc1-c1ccc2c(c1COC(=O)c1ccc(Br)s1)C(C)=CC(C)(C)N2` [Compound 1-162, 5-(5-Bromothiophen-2-ylcarbonyloxymethyl)-6-[4-(furan-2-ylcarbonyloxy)-2-methoxyphenyl]-2,2,4-trimethyl-1,2-dihydroquinoline] it is 81%; for `COc1ccccc1NCc1c(-c2ccc(OC(=O)c3ccccc3Cl)cc2OC)ccc2c1C(C)=CC(C)(C)N2` [Compound 1-99, 6-[4-(2-Chlorobenzoyloxy)-2-methoxyphenyl]-5-(2-methoxyphenylaminomethyl)-2,2,4-trimethyl-1,2-dihydroquinoline] it is 89%.
`CCCS(=O)(=O)Oc1ccc(-c2ccc3c(c2COc2cc([N+](=O)[O-])ccc2C)C(C)=CC(C)(C)N3)c(OC)c1` [Compound 4-12, 6-(2-Methoxy-4-propylsulfonyloxyphenyl)-5-(2-methyl-5-nitrophenoxymethyl)-2,2,4-trimethyl-1,2-dihydroquinoline]: the Emax is 77%.
On to `COc1cc(OC(=O)c2cccnc2C)ccc1-c1ccc2c(c1COC(=O)c1ccc(C)s1)C(C)=CC(C)(C)N2` [Compound 1-153, 6-[2-Methoxy-4-(2-methylpyridin-3-ylcarbonyloxy)phenyl]-5-(5-methylthiophen-2-ylcarbonyloxymethyl)-2,2,4-trimethyl-1,2-dihydroquinoline], for which the Emax was 89%.
As to `CCCS(=O)(=O)Oc1ccc(-c2ccc3c(c2COC(=O)c2ccc(C)s2)C(C)=CC(C)(C)N3)c(OC)c1` [Compound 4-27, 6-(2-Methoxy-4-propylsulfonyloxyphenyl)-5-(5-methylthiophen-2-ylcarbonyloxymethyl)-2,2,4-trimethyl-1,2-dihydroquinoline], the maximal effect (Emax) turned out to be 101%.
In turn, `COc1cc(OC(=O)C(C)C)ccc1-c1ccc2c(c1COC(=O)c1ccc(C)s1)C(C)=CC(C)(C)N2` [Compound 1-164, 6-(4-Isopropylcarbonyloxy-2-methoxyphenyl)-5-(5-methylthiophen-2-ylcarbonyloxymethyl)-2,2,4-trimethyl-1,2-dihydroquinoline] came in with an Emax of 85%.
For `COc1ccccc1NCc1c(-c2ccc(OC(=O)c3ccccc3)cc2OC)ccc2c1C(C)=CC(C)(C)N2` [Compound 1-92, 6-(4-Benzoyloxy-2-methoxyphenyl)-5-(2-methoxyphenylaminomethyl)-2,2,4-trimethyl-1,2-dihydroquinoline], the Emax is 79%.
